# Calls of active or inactive are those of the source. No cut-off for these calls is given here.
# Experiments:
# [1] = system: NCI-H446; assay: Effect on NCAM gene expression in human NCI-H446 cells at 1 uM measured after 4 days by qRT-PCR analysis; type: functional, cell-based; settings: time 4.0 day
# [2] = system: NCI-H69; assay: Antitumor activity against human NCI-H69 cells xenografted in nude mouse assessed as tumor growth inhibition at 0.5 mg/kg, po administered daily measured twice weekly relative to control; type: functional; settings: read-out: TGI
# [3] = Effect on cleaved PARP level in human NCI-H1694 cells assessed as relative expression at 10 nM measured after 14 days by Western blot analysis (reference value: 0.25); type: functional; settings: time 14 day
# [4] = Toxicity in rat assessed as multifocal hemorrhage in organs measured for 28 days; settings: in vivo, 672 h, time 28 day
# [5] = system: NCI-H69; assay: Antitumor activity against human NCI-H69 cells xenografted in nude mouse assessed as mean tumor volume at 1.5 mg/kg, po administered daily measured twice weekly (reference value: 1063 +/- 161 mm3); type: functional
# [6] = Effect on cleaved PARP level in human NCI-H146 cells assessed as fold change at 1000 nM measured after 10 days by Western blot analysis (reference value: 1.00); type: functional; settings: time 10 day
# [7] = Effect on cleaved PARP level in human NCI-H524 cells assessed as relative expression at 1000 nM measured after 14 days by Western blot analysis (reference value: […]); type: functional; settings: time 14 day
# [8] = Effect on cleaved PARP level in human NCI-H510 cells assessed as fold change at 1000 nM measured after 10 days by Western blot analysis (reference value: 1.00); type: functional, NCI-H510A; settings: time 10 day
# [9] = Effect on cleaved PARP level in human COLO-668 cells assessed as fold change at 100 nM measured after 7 days by Western blot analysis (reference value: 1.00); type: functional; settings: time 7 day
# [10] = Effect on cleaved PARP level in human COLO-668 cells assessed as relative expression at 100 nM measured after 7 days by Western blot analysis (reference value: […]); type: functional; settings: time 7 day
# [11] = system: NCI-H510A; assay: Effect on NCAM gene expression in human NCI-H510A cells at 1 uM measured after 4 days by qRT-PCR analysis; type: functional, cell-based; settings: time 4.0 day
# [12] = Toxicity in rat assessed as suppression of neutrophil in bone marrow measured for 28 days; type: cell-based; settings: 672 h, time 28 day
# [13] = Effect on cleaved PARP level in human NCI-H889 cells assessed as fold change at 10 nM measured after 7 days by Western blot analysis (reference value: 1.00); type: functional; settings: time 7 day
# [14] = Effect on cleaved PARP level in human NCI-H1417 cells assessed as relative expression at 1000 nM measured after 7 days by Western blot analysis (reference value: 0.10); type: functional; settings: time 7 day
# [15] = system: NCI-H2171; assay: Antitumor activity against human NCI-H2171 cells xenografted in nude mouse assessed as tumor growth inhibition at […] mg/kg, po administered daily measured twice weekly relative to control; type: functional; settings: read-out: TGI
# [16] = Effect on cleaved PARP level in human COLO-668 cells assessed as fold change at 1000 nM measured after 14 days by Western blot analysis (reference value: 1.00); type: functional; settings: time 14 day
# [17] = Effect on cleaved PARP level in human NCI-H510 cells assessed as fold change at 100 nM measured after 10 days by Western blot analysis (reference value: 1.00); type: functional, NCI-H510A; settings: time 10 day
# [18] = Effect on cleaved PARP level in human NCI-H146 cells assessed as fold change at 10 nM measured after 10 days by Western blot analysis (reference value: 1.00); type: functional; settings: time 10 day
# [19] = Effect on cleaved PARP level in human NCI-H2171 cells assessed as fold change at 1000 nM measured after 7 days by Western blot analysis (reference value: 1.00); type: functional; settings: time 7 day
# [20] = Effect on cleaved PARP level in human COLO-668 cells assessed as fold change at 10 nM measured after 7 days by Western blot analysis (reference value: 1.00); type: functional; settings: time 7 day
# [21] = Toxicity in rat assessed as suppression of platelet in bone marrow measured for 28 days; type: cell-based; settings: 672 h, time 28 day
# [22] = Effect on cleaved PARP level in human NCI-H2171 cells assessed as relative expression at 1000 nM measured after 7 days by Western blot analysis (reference value: 0.02); type: functional; settings: time 7 day
# [23] = Toxicity in dog assessed as declining clinical condition measured for 28 days; set-up: species or system Canis lupus familiaris; settings: in vivo, 672 h, time 28 day
# [24] = Effect on cleaved PARP level in human NCI-H1694 cells assessed as fold change at 1000 nM measured after 7 days by Western blot analysis (reference value: 1.00); type: functional; settings: time 7 day
# [25] = AUC (0 to infinity) in mouse tumor at 5 mg/kg, po by HPLC/MS/MS analysis; type: ADME, organism-based, Neoplasm
# [26] = Effect on cleaved PARP level in human COLO-668 cells assessed as fold change at 100 nM measured after 10 days by Western blot analysis (reference value: 1.00); type: functional; settings: time 10 day
# [27] = system: NCI-H526; assay: Antitumor activity against human NCI-H526 cells xenografted in nude mouse assessed as tumor growth inhibition at 0.5 mg/kg, po administered daily measured twice weekly relative to control; type: functional; settings: read-out: TGI
structure (smiles),measurement,setting,value
O=C(O)c1ccc(CN2CCC(CN[C@@H]3C[C@H]3c3ccccc3)CC2)cc1 [GSK2879552],Activity,[1],inactive
same,inhibition in vivo at 0.5 mg/kg,[2],51%
same,Activity,[3],0.22
same,Activity,[4],Toxic
same,Activity,[5],610 mm3
same,fold change (FC),[6],0.89
same,Activity,[7],1.17
same,fold change (FC),[8],12.67
same,fold change (FC),[9],1.06
same,Activity,[10],1.52
same,Activity,[11],inactive
same,Activity,[12],Toxic
same,fold change (FC),[13],0.09
same,Activity,[14],0.36
same,inhibition in vivo at 1.25 mg/kg,[15],37%
same,fold change (FC),[16],0.29
same,fold change (FC),[17],9.72
same,fold change (FC),[18],1.24
same,fold change (FC),[19],2.18
same,fold change (FC),[20],0.74
same,Activity,[21],Toxic
same,Activity,[22],0.04
same,Activity,[23],Toxic
same,fold change (FC),[24],1.44
same,AUC(0-inf),[25],2690 ng·h/mL
same,fold change (FC),[26],0.69
same,inhibition in vivo at 0.5 mg/kg,[27],48%

# From ChEMBL document CHEMBL5705903, “A DNA Hypomethylation Signature Predicts Antitumor Activity of LSD1 Inhibitors in SCLC” (Cancer Cell, 2015)
